Like-named read-outs stand apart in the source and are kept apart here.
Columns and labels:
[1] = Pharmacokinetic evaluation in ICR mice after intravenous injection; format: in vivo; settings: mouse; ICR male mice, 1.0 mg/kg intravenous, plasma
Description: A test compound (1.0 mg/kg) was administered to fasted ICR male mice via intravenous injection, and blood samples were collected at time points of 0.08, 0.25, 0.5, 1, 2, 4, 6, 8 and 24 h after the administration. Plasma sample was separated by centrifugation (8000 rpm) and stored at −80° C. until the sample was analyzed. Concentrations of the test compound in the plasma were determined by HPLC-MS/MS: the plasma was dispensed into appropriate tubes containing internal standard and methanol or acetonitrile. The tubes were mixed vigorously for 3 minutes to achieve deproteinization and then centrifuged at 8000 rpm for 5 minutes. The supernatant was transferred to an autosampler vial, injected into the chromatographic system, and quantified on MS/MS detector. Pharmacokinetic parameters including AUC0-4, Cmax, Tmax, t1/2, MRT, Cl and Vd were calculated using WinNonlin 6.3 software. Table 3 summarizes key PK parameters for test compounds (AUC(0-t): the area under the curve from time 0 to time t; AUC(0-∞): the area under the curve from time 0 to infinity; t1/2: Half-life; CL: clearance; C0: the concentration of drug in blood if the drug molecules enter the circulation and are distributed immediately (i.e., at time 0)).

human T cell = experiment: CD73 cellular assay (T cell stimulation assay: CellTiter-Glo proliferation and IFN-γ ELISA); format: cell-based; settings: human T cells, anti-CD3/CD28, AMP + EHNA, 72 hours
Description: Day 2, human T cell seeding: (a) washing the coated plate (from Day 1) with sterilized PBS buffer (2×100 uL); (b) re-suspending T cells and adjusting cell density to 0.5×10^6 cells/mL with growth media (X-VIVO 15+1% Pen/strep+1% glutamine), and seeding 100 μL/well (50,000 cells/well) in 96-well plates; (c) diluting CD28 antibody for 8× working concentration (8 μg/mL) with growth media, giving 1 μg/mL of the final concentration, followed by addition of CD28 antibody (25 μL) to cell plate; incubating the plates under 5% CO2 at 37° C. for 60 min; (d) adding compound (25 μL, 8×dilution with growth media) to cell plate, and incubating the plates under 5% CO2 at 37° C. for 60 min; (e) adding AMP (25 μL) and EHNA (25 μL, 8×dilution with growth media) to cell plate; (f) incubating the plates under 5% CO2 at 37° C. for 72 hours.
Day 5, collecting cell growth media and testing cell proliferation: (a) centrifuging the cell plate (1,000 rpm) for 5 min; (b) harvesting 150 μL of the cell culture media from each well to 96 well plate, followed by measurement of IFN-r expression by ELISA test; (c) taking a portion of the cell culture supernatant for cytokine analysis, removing the remaining supernatant, followed by addition of fresh growth media (X-VIVO 15+1% Pen/strep+1% glutamine, 100 μL); (d) adding Celltiter-Glo solution (50 μL) into each well for the measurement of cell proliferation by: (e) incubating the plates at room temperature for 10 min on a shaker; (f) transferring 100 μL solution into 96-well white plate and taking the readout of the Celltiter-Glo data using a TECAN Reader.

[2] = biological target: T1, Recombinant human 5′-nucleotidase (hCD73) (Homo sapiens, UniProt P21589); experiment: CD73 enzyme inhibition assay (recombinant hCD73, AMP substrate, phosphate detection); format: biochemical; settings: 37° C. 20 min, absorbance 635 nm
T1 sequence (P21589 27-549): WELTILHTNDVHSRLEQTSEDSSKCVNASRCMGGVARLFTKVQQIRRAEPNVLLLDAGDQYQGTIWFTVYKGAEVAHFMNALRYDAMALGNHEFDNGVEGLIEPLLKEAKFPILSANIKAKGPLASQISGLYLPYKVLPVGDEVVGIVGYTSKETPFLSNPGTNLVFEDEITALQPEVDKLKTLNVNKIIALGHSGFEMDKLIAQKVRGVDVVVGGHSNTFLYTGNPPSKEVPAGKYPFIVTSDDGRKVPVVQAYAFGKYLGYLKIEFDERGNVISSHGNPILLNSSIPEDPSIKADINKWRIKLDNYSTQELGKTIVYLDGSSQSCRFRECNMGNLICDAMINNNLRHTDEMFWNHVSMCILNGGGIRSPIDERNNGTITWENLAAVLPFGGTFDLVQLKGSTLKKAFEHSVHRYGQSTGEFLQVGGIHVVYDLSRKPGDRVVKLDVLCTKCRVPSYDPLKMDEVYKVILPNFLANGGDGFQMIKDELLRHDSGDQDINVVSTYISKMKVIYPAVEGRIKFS
Description: Test compound solution preparation: Stock solution of a test compound was prepared in DMSO at 10 mM concentration. A series of preset 10-concentration solutions of a test compound were prepared by diluting the stock solution in 5-fold gradient dilution with DMSO.
Assay buffer (1×): […] Tris, 25 mM NaCl, 1 mM MgCl2, pH 7.5, 0.005% Tween-20 (freshly prepared, and ready for use).
An aliquot of 0.25 μL of compound solution or DMSO (blank control) was added to each test well of a micro well plate. Recombinant human 5′-nucleotidase (hCD73) was diluted to 1 nM in assay buffer; and an aliquot of 25 μL hCD73 (1 nM) solution was added to the corresponding wells of the plate. The contents of the well were well-mixed, and the plate was covered with sealing film, centrifuged at 1000 rpm for 30 sec., followed by incubation at room temperature for 15 min. AMP, the substrate, was diluted to 60 μM concentration in the assay buffer. To each reaction well was added 25 μL of AMP solution. After mixing well, the plate was covered with sealing film, centrifuged at 1000 rpm for 30 sec., and incubated at 37° C. for 20 min. The absorbance signal (end point) was measured on SPARK plate reader at 635 nm (See PiColorLock™ Gold Phosphate Detection System (Abcam) test kit for reference).
The reaction wells containing CD73 enzyme, substrate AMP and DMSO (no compound) were used as positive control, and the reaction wells containing substrate AMP and DMSO but no CD73 enzyme were used as negative control. The percent (%) inhibition at each concentration of compound was calculated based on and relative to the signal in the High and Low control wells contained within each assay plate. The High control wells were considered as 0% inhibition, and the low control wells, which didn't contain any compound but rather DMSO (final concentration=0.5%), as 100% inhibition. IC50 values were obtained using GraphPad Prism software.

[3] = read-out: EC50 CTG (CellTiter-Glo, cell proliferation)
[4] = read-out: EC50 IFN-γ (ELISA, indicator for T-cell activity)

SMILES | clearance [1] | EC50 (human T cell; [3]) | EC50 (human T cell; [4]) | IC50 [2]
O=P(O)(O)CP(=O)(O)OC[C@H]1O[C@@H](n2cnc3c(N4CCC5(CCCCC5)C4)nc(Cl)nc32)[C@@H](O)C1O (some centres unmarked) [Compound b, reference compound] | 1.85 mL/min/kg | 7.53 nM | 14.2 nM | 1.08 nM
O=P(O)(O)CP(=O)(O)OC[C@H]1O[C@@H](n2cnc3c(N4CC5(CCc6ccccc65)C4)nc(Cl)nc32)[C@@H](O)C1O (stereo partly drawn) [d-1] | 2.65 mL/min/kg | 3.13 nM | 1.45 nM | 0.47 nM

— patent US20240024346A1, “CD73 INHIBITORS AND PHARMACEUTICAL USES THEREOF” (RISEN (SUZHOU) PHARMA TECH CO., LTD., priority 2020, published 2024)
